Calls of active or inactive are those of the source. The rule behind the calls is not given here.
System: CCRIS mutagenicity, Ames/micronucleus/aberration tests
Assay: CCRIS mutagenicity studies

With `[B-]` the mutagenic call (Test System: AMES SALMONELLA TYPHIMURIUM, Strain/Indicator: TA98, Metabolic Activation: NONE, Method: PREINCUBATION) was “inactive; negative”, the mutagenic call (Test System: AMES SALMONELLA TYPHIMURIUM, Strain/Indicator: TA98, Metabolic Activation: RAT LIVER S-9, PHENOBARBITAL AND BETA-NAPHTHOFLAVONE, Method: PREINCUBATION) was “inactive; negative” and the mutagenic call (Test System: AMES SALMONELLA TYPHIMURIUM, Strain/Indicator: TA100, Metabolic Activation: NONE, Method: PREINCUBATION) was “inactive; negative”. The mutagenic call (Test System: AMES SALMONELLA TYPHIMURIUM, Strain/Indicator: TA100, Metabolic Activation: RAT LIVER S-9, PHENOBARBITAL AND BETA-NAPHTHOFLAVONE, Method: PREINCUBATION) was “inactive; negative”, the mutagenic call (Test System: AMES SALMONELLA TYPHIMURIUM, Strain/Indicator: TA1535, Metabolic Activation: NONE, Method: PREINCUBATION) was “inactive; negative” and the mutagenic call (Test System: AMES SALMONELLA TYPHIMURIUM, Strain/Indicator: TA1535, Metabolic Activation: RAT LIVER S-9, PHENOBARBITAL AND BETA-NAPHTHOFLAVONE, Method: PREINCUBATION) was “inactive; negative”. The mutagenic call (Test System: AMES SALMONELLA TYPHIMURIUM, Strain/Indicator: TA1537, Metabolic Activation: NONE, Method: PREINCUBATION) was “inactive; negative”, the mutagenic call (Test System: AMES SALMONELLA TYPHIMURIUM, Strain/Indicator: TA1537, Metabolic Activation: RAT LIVER S-9, PHENOBARBITAL AND BETA-NAPHTHOFLAVONE, Method: PREINCUBATION) was “inactive; negative” and the mutagenic call (Test System: AMES SALMONELLA TYPHIMURIUM, Strain/Indicator: TA1538, Metabolic Activation: NONE, Method: PREINCUBATION) was “inactive; negative”. The mutagenic call (Test System: AMES SALMONELLA TYPHIMURIUM, Strain/Indicator: TA1538, Metabolic Activation: RAT LIVER S-9, PHENOBARBITAL AND BETA-NAPHTHOFLAVONE, Method: PREINCUBATION) was “inactive; negative”, the mutagenic call (Test System: E.COLI, Strain/Indicator: WP2UVRA, Metabolic Activation: NONE, Method: PREINCUBATION) was “inactive; negative” and the mutagenic call (Test System: E.COLI, Strain/Indicator: WP2UVRA, Metabolic Activation: RAT LIVER S-9, PHENOBARBITAL AND BETA-NAPHTHOFLAVONE, Method: PREINCUBATION) was “inactive; negative”.

For `c1ccc2c(c1)[nH]c1cnccc12`, the mutagenic call (Test System: AMES SALMONELLA TYPHIMURIUM, Strain/Indicator: TA98, Metabolic Activation: RAT, LIVER, S-9, AROCLOR 1254, Method: PREINCUBATION) was “inactive; negative”.

`c1ccc2c(OC[C@@H]3CO3)cccc2c1` was tested, and the mutagenic call (Test System: AMES SALMONELLA TYPHIMURIUM, Strain/Indicator: TA100, Metabolic Activation: NONE, Method: STANDARD PLATE) was “active; positive”.

Reference: PubChem BioAssay AID1259407 (Chemical Carcinogenesis Research Information System (CCRIS), 2018)
